According to PMC11326381, “Structural Study of Selectivity Mechanisms for JNK3 and p38α with Indazole Scaffold Probing Compounds” (Research Square, 2024):

Experiments:
JNK1 = details: cited from earlier work
JNK3 = JNK3 (Homo sapiens, UniProt P53779); assay: HTRF enzyme inhibition assay, JNK3; format: biochemical
Protocol: Homogeneous Time-resolved Fluorescence Assay (HTRF)
Enzyme inhibition assays to determine IC50 values for the kinases were performed as described previously.

Chain of JNK3 (P53779 whole entry): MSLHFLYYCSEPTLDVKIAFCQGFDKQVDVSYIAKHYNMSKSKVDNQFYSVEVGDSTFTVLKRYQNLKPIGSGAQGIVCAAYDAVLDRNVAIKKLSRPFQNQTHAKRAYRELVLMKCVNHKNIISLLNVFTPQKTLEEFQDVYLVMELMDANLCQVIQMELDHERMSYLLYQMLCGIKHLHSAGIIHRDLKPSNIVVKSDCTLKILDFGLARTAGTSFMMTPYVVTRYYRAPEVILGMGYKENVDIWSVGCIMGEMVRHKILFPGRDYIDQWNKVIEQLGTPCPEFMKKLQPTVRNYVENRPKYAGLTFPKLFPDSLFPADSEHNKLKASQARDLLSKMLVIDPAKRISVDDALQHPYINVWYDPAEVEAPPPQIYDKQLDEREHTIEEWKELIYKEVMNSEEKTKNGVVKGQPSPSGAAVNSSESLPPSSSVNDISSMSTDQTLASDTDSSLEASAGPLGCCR

IC50 (JNK3) [µM]	Compound	affinity for JNK1 (JNK1)
	Cc1ccc(-n2nc(C(C)(C)C)cc2NC(=O)Nc2ccc(OCCN3CCOCC3)c3ccccc23)cc1 [BIRB796]	no affinity
0.137	CNC(=O)c1cc(-n2ncc3cc(Nc4c(F)cccc4Cl)c(CN4CCC4)cc32)cs1 [Compound 21G]	
0.006	CNC(=O)c1cc(-n2ncc3cc(Nc4c(F)cccc4Cl)c(COC)cc32)cs1 [Compound 21J]	
1	COc1ccccc1Nc1cc2cnn(-c3cc(C(=O)NC4COC4)sc3C)c2cc1F [Compound 23GA]	
0.014	COc1ccccc1Nc1cc2cnn(-c3csc(C(=O)NC4COC4)c3)c2cc1F [Compound 23M]	
